Experiments:
[1] = molecular target: MAO B, human enzyme; parameters: method as in PMID 22282722; conditions: competitive inhibition; cited from earlier work
[2] = DPPH radical scavenging assay; type: physicochemical; conditions: compound 50 μM, DPPH 100 μM
Excerpt: (§1) Starting from these evidences, we tested DAN in two in vitro models of radical scavenging activity, i.e., the 1,1-diphenyl-2-picryl-hydrazyl (DPPH) and 2,2′-azinobis-(3-ethylbenzothiazoline-6-sulfonic acid) (ABTS) free radical production. Both generate stable nitrogen radicals showing high absorption in visible spectrum, thus allowing easy and straightforward spectrophotometric measures. […] It can be assumed that the antioxidant activity of DAN is independent from its radical scavenging properties.
(§2) Already published protocols for DPPH and […] radical scavenging were used. The scavenging of the radical DPPH^·, or the monocation radical ABTS^·+, were determined by measuring the loss of absorbance at 515 or 755 nm, respectively. Samples were prepared in clear polystyrene flat-bottomed 96-well microplates. […] A preliminary absorbance reading at 755 nm allowed to determine the actual ABTS^·+ concentration (normally 60–70 μM; extinction coefficient ε = 12,000) and set the final concentration of inhibitors to 0.2[ABTS^·+]. 215 μL of ABTS^·+ solution were mixed with 35 μL of stock solution of inhibitors and the decrease in absorbance was monitored. Antioxidant activity was determined from Equation (2) as the percentage of radical production of inhibitor containing samples, compared with control: % radical production = 100 × ABSsample/ABScontrol(2)

[3] = ABTS radical scavenging assay; type: physicochemical; conditions: compound at 0.2·[ABTS+]
Excerpt: as §1, §2

SMILES | Ki for human MAO B (competitive) [1] | DPPH radical scavenging activity [2] | ABTS radical scavenging activity [3]
CCc1ccc(CCOc2ccc(CC3SC(=O)NC3=O)cc2)nc1 (stereo not shown) [pioglitazone] | submicromolar | – | –
O=c1c(O)c(-c2ccc(O)c(O)c2)oc2cc(O)cc(O)c12 [quercetin] | – | strong radical scavenger | strong radical scavenger
CN(CCOc1ccc(CC2SC(=O)NC2=O)cc1)c1ccccn1 (stereo not shown) [rosiglitazone] | low- | – | –
